PubChem BioAssay AID248 (DTP/NCI, 2004)
Values joined by “and” are separate entries in the source; they are usually repeats but may differ in a detail not shown here. Equal values may be shown once. Toxic doses and inconclusive results are not listed. No stated cut-off is given here; in the data, active means T/C of 150% or more; inactive means T/C below 125%.

Tested on: L1210 leukemia ip in BDF1 mice, survival T/C
Assay: NCI In Vivo Anticancer Drug Screen. Data for tumor model L1210 Leukemia (intraperitoneal) in B6D2F1 (BDF1) mice
Settings: endpoint: mean survival time, higher = longer survival
How it was run: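 Value reflects the ratio of survival in compound-treated mice to survival in vehicle-treated controls, with both groups carrying the same transplanted tumor.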

[1] = dose: 100.0 mg/kg/injection, schedule: Q01DX009 (ip), vehicle: Klucel (hydroxypropylcellulose) (HPC)
[2] = dose: 100.0 mg/kg/injection, schedule: Q04DX003 (ip), vehicle: saline
[3] = dose: 200.0 mg/kg/injection, schedule: Q01DX009 (ip), vehicle: Klucel (hydroxypropylcellulose) (HPC)
[4] = dose: 200.0 mg/kg/injection, schedule: Q04DX003 (ip), vehicle: saline
[5] = dose: 400.0 mg/kg/injection, schedule: Q01DX009 (ip), vehicle: Klucel (hydroxypropylcellulose) (HPC)
[6] = dose: 400.0 mg/kg/injection, schedule: Q04DX003 (ip), vehicle: saline
[7] = dose: 100.0 mg/kg/injection, schedule: Q04DX003 (ip), vehicle: Klucel (hydroxypropylcellulose) (HPC)
[8] = dose: 200.0 mg/kg/injection, schedule: Q04DX003 (ip), vehicle: Klucel (hydroxypropylcellulose) (HPC)
[9] = dose: 400.0 mg/kg/injection, schedule: Q04DX003 (ip), vehicle: Klucel (hydroxypropylcellulose) (HPC)
[10] = dose: 100.0 mg/kg/injection, schedule: Q04DX002 (ip), vehicle: Klucel (hydroxypropylcellulose) (HPC)
[11] = dose: 400.0 mg/kg/injection, schedule: Q04DX002 (ip), vehicle: Klucel (hydroxypropylcellulose) (HPC)

Measured: T/C

C1CN(P(N2CCOCC2)N2CCOCC2)CCO1
inactive: dose: 100.0 mg/kg/injection, schedule: Q01DX009 (ip), vehicle: saline 104 % of control | dose: 200.0 mg/kg/injection, schedule: Q01DX009 (ip), vehicle: saline 98 % of control | dose: 400.0 mg/kg/injection, schedule: Q01DX009 (ip), vehicle: saline 98 % of control

CCCCCCCNC(=O)OCC
inactive: dose: 55.0 mg/kg/injection, schedule: Q01DX Z (ip), vehicle: methylcellulose (MC) 93 % of control | dose: 83.0 mg/kg/injection, schedule: Q01DX Z (ip), vehicle: methylcellulose (MC) 93 % of control | dose: 125.0 mg/kg/injection, schedule: Q01DX Z (ip), vehicle: methylcellulose (MC) 104 % of control

O=C(NCCCNC(=O)Nc1ccc(C2=NCC(O)CN2)cc1)Nc1ccc(C2=NCC(O)CN2)cc1 (configuration not stated)
inactive: dose: 30.7 mg/kg/injection, schedule: Q01DX015 (ip), vehicle: methylcellulose (MC) 104 % of control | dose: 61.5 mg/kg/injection, schedule: Q01DX015 (ip), vehicle: methylcellulose (MC) 95 % of control

Cc1ccc(S(=O)(=O)OC2CCC(C(C)(C)C)CC2Cl)cc1 (configuration not stated)
inactive: [1] 98 % of control | [2] 98 % of control | [3] 108 % of control | [4] 98 % of control | [5] 98 % of control | [6] 94 % of control

O=C(CCl)N(O)c1ccc(/C=C/c2ccccc2)cc1
inactive: dose: 100.0 mg/kg/injection, schedule: Q01DX001 (ip), vehicle: carboxymethylcellulose (CMC) 90 % of control | dose: 200.0 mg/kg/injection, schedule: Q01DX001 (ip), vehicle: carboxymethylcellulose (CMC) 88 % of control | dose: 400.0 mg/kg/injection, schedule: Q01DX001 (ip), vehicle: carboxymethylcellulose (CMC) 95 % of control

O=C(NC(CSC(c1ccccc1)(c1ccccc1)c1ccccc1)C(=O)O)OCc1ccccc1 (configuration not stated)
inactive: [2] 105 % of control | [4] 100 % of control | [6] 105 % of control

CCN(CC)c1ccc(NC(=S)Nc2ccc(N(CC)CC)cc2)cc1
inactive: dose: 75.0 mg/kg/injection, schedule: Q01DX009 (ip), vehicle: Klucel (hydroxypropylcellulose) (HPC) 100 % of control | dose: 75.0 mg/kg/injection, schedule: Q04DX003 (ip), vehicle: saline 106 % of control | dose: 150.0 mg/kg/injection, schedule: Q01DX009 (ip), vehicle: Klucel (hydroxypropylcellulose) (HPC) 101 % of control | dose: 150.0 mg/kg/injection, schedule: Q04DX003 (ip), vehicle: saline 103 % of control | dose: 300.0 mg/kg/injection, schedule: Q01DX009 (ip), vehicle: Klucel (hydroxypropylcellulose) (HPC) 94 % of control | dose: 300.0 mg/kg/injection, schedule: Q04DX003 (ip), vehicle: saline 93 % of control

O=C1c2cccc(S(=O)(=O)O)c2C(=O)c2cccc([N+](=O)[O-])c21
inactive: [7] 98 % of control | [8] 91 % of control | [9] 94 % of control

NC(Cc1c[nH]c2ccccc12)C(=O)OCc1ccccc1 (configuration not stated)
inactive: dose: 6.25 mg/kg/injection, schedule: Q01DX009 (ip), vehicle: water 101 % of control | dose: 12.5 mg/kg/injection, schedule: Q01DX009 (ip), vehicle: water 99 % of control | dose: 25.0 mg/kg/injection, schedule: Q01DX009 (ip), vehicle: water 98 % of control and 106 % of control | dose: 50.0 mg/kg/injection, schedule: Q01DX009 (ip), vehicle: water 107 % of control | dose: 100.0 mg/kg/injection, schedule: Q01DX009 (ip), vehicle: saline with Tween-80 104 % of control | dose: 100.0 mg/kg/injection, schedule: Q01DX009 (ip), vehicle: water 97 % of control and 86 % of control | dose: 200.0 mg/kg/injection, schedule: Q01DX009 (ip), vehicle: saline with Tween-80 104 % of control | dose: 400.0 mg/kg/injection, schedule: Q01DX009 (ip), vehicle: saline with Tween-80 93 % of control

O=C(O)c1ccccc1C(=O)c1ccc(-c2ccccc2)cc1
inactive: dose: 100.0 mg/kg/injection, schedule: Q01DX001 (ip), vehicle: Klucel (hydroxypropylcellulose) (HPC) 110 % of control | dose: 200.0 mg/kg/injection, schedule: Q01DX001 (ip), vehicle: Klucel (hydroxypropylcellulose) (HPC) 102 % of control | dose: 400.0 mg/kg/injection, schedule: Q01DX001 (ip), vehicle: Klucel (hydroxypropylcellulose) (HPC) 100 % of control

CC(=O)Nc1ccc(C)c(NC(C)=O)c1
inactive: [7] 96 % of control | [8] 96 % of control | [9] 96 % of control

COc1cc(/C=N/N=C(N)N)cc(I)c1O
inactive: dose: 15.0 mg/kg/injection, schedule: Q01DX Z (ip), vehicle: carboxymethylcellulose (CMC) 100 % of control | dose: 30.0 mg/kg/injection, schedule: Q01DX Z (ip), vehicle: carboxymethylcellulose (CMC) 106 % of control | dose: 30.0 mg/kg/injection, schedule: Q01DX Z (oral), vehicle: carboxymethylcellulose (CMC) 102 % of control | dose: 60.0 mg/kg/injection, schedule: Q01DX Z (ip), vehicle: carboxymethylcellulose (CMC) 112 % of control | dose: 60.0 mg/kg/injection, schedule: Q01DX Z (oral), vehicle: carboxymethylcellulose (CMC) 95 % of control | dose: 120.0 mg/kg/injection, schedule: Q01DX Z (oral), vehicle: carboxymethylcellulose (CMC) 98 % of control

O=S(=O)(/C=C/c1ccccc1)c1ccc2ccccc2c1
inactive: dose: 100.0 mg/kg/injection, schedule: Q01DX001 (ip), vehicle: acetone 97 % of control | dose: 100.0 mg/kg/injection, schedule: Q01DX009 (ip), vehicle: acetone 92 % of control | dose: 100.0 mg/kg/injection, schedule: Q04DX003 (ip), vehicle: acetone 102 % of control | dose: 200.0 mg/kg/injection, schedule: Q01DX001 (ip), vehicle: acetone 93 % of control | dose: 200.0 mg/kg/injection, schedule: Q01DX009 (ip), vehicle: acetone 92 % of control | dose: 200.0 mg/kg/injection, schedule: Q04DX003 (ip), vehicle: acetone 105 % of control | dose: 400.0 mg/kg/injection, schedule: Q01DX001 (ip), vehicle: acetone 90 % of control | dose: 400.0 mg/kg/injection, schedule: Q01DX009 (ip), vehicle: acetone 94 % of control | dose: 400.0 mg/kg/injection, schedule: Q04DX003 (ip), vehicle: acetone 102 % of control

O=C1OC(c2cccc(Cl)c2)=N/C1=C\c1ccccc1
inactive: [10] 98 % of control | [11] 104 % of control

S=C(Nc1cccc2ccccc12)N1CCOCC1
inactive: [1] 94 % of control | [3] 120 % of control | [5] 96 % of control

O=C(COc1ccc(Cl)cc1)NCCc1ccccc1
inactive: [1] 97 % of control | [3] 92 % of control | [5] 98 % of control

Cc1cc2cc3cccc[n+]3cc2c2ccccc12
inactive: dose: 2.0 mg/kg/injection, schedule: Q01DX Z (ip), vehicle: carboxymethylcellulose (CMC) 101 % of control | dose: 4.0 mg/kg/injection, schedule: Q01DX Z (ip), vehicle: carboxymethylcellulose (CMC) 110 % of control | dose: 8.0 mg/kg/injection, schedule: Q01DX Z (ip), vehicle: carboxymethylcellulose (CMC) 113 % of control | dose: 16.0 mg/kg/injection, schedule: Q01DX Z (ip), vehicle: carboxymethylcellulose (CMC) 113 % of control

N#Cc1ccccc1CCc1ccccc1
inactive: dose: 50.0 mg/kg/injection, schedule: Q01DX001 (ip), vehicle: saline 106 % of control | dose: 100.0 mg/kg/injection, schedule: Q01DX001 (ip), vehicle: saline 102 % of control | dose: 200.0 mg/kg/injection, schedule: Q01DX001 (ip), vehicle: saline 106 % of control | dose: 400.0 mg/kg/injection, schedule: Q01DX001 (ip), vehicle: saline 98 % of control

CC(C)(C)C(=O)CC(=O)C(C)(C)C.CC(C)(C)C(=O)CC(=O)C(C)(C)C.CC(C)(C)C(=O)CC(=O)C(C)(C)C.CC(C)(C)C(=O)CC(=O)C(C)(C)C.[Er]
inactive: dose: 100.0 mg/kg/injection, schedule: Q04DX003 (ip), vehicle: saline with Tween-80 108 % of control | dose: 200.0 mg/kg/injection, schedule: Q04DX003 (ip), vehicle: saline with Tween-80 92 % of control | dose: 400.0 mg/kg/injection, schedule: Q04DX003 (ip), vehicle: saline with Tween-80 88 % of control

N#C/C(=C\c1ccccc1)c1cccc(Cl)c1
inactive: dose: 100.0 mg/kg/injection, schedule: Q01DX009 (ip), vehicle: other 95 % of control | dose: 200.0 mg/kg/injection, schedule: Q01DX009 (ip), vehicle: other 87 % of control

CCC(C)(CC)OC(=O)c1ccc([N+](=O)[O-])cc1
inactive: [10] 113 % of control | dose: 200.0 mg/kg/injection, schedule: Q04DX002 (ip), vehicle: Klucel (hydroxypropylcellulose) (HPC) 106 % of control | [11] 97 % of control
